Assay [1] can be described thus: Trypanosoma cruzi growth suppression in host cells – NIH3T3 host cells, beta-gal luminescence, confirmation (AID 2044).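 Note: intracellular parasites grown in NIH/3T3 mouse fibroblasts as host cells; luminescent beta-galactosidase reporter signal from transgenic T. cruzi replicating inside host cells; inhibitors lower the luminescence signal.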 Format: functional, cell-based.
Assay [2] is described as follows: NIH3T3 cell viability loss – ATP luminescence, mouse fibroblasts, counter-screen, dose response (AID 2010).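 Note: cells exposed to compound for about 90 hours before reading.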 Format: functional, cell-based.
Assay [3] has as its system Streptococcus. In words: GAS UMAA2166 growth inhibition – luminescence, BacTiterGlo, counter-screen for streptokinase expression inhibitor project, dose response (AID 1915).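 Note: potency for reduction of bacterial viability or growth.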 Type of assay: functional, organism-based.
For assay [4], the system named is Streptococcus sp. 'group A'. The experiment in a line: Streptococcus pyogenes SK(-)GAS viability under kanamycin – luminescence, BacTiterGlo, confirmation, counter-screen for streptokinase expression inhibitor project, dose response (AID 1900). Format: functional, organism-based.

The structures appear in SMILES notation. Activity calls are given as the source filed them. Cut-off read from the data, not from the text of the source: actives have a measured EC50 and inactives only a lower limit.

In the case of `Cc1ccc(NP(=O)(c2ccc(N(C)C)cc2NC(=O)c2cccs2)N2CCOCC2)cc1Cl` (stereo not drawn), the EC50 is 1.9 µM (active) in assay [1] and > 30 µM (not active) in assay [2].
The corresponding values for `O=C(COC(=O)c1c2c(nc3ccccc13)/C(=C\c1cccs1)CCC2)Nc1ccccc1Cl` are 1.73 µM (active) and > 60 µM (not active).
Take `O=C(C1=C[C@H](c2ccc(Br)cc2)C[C@H](OCCCCO)O1)N1CCN(Cc2ccccc2)CC1`: the figures for the EC50 in assay [1] and in assay [2] were 0.874 µM (active) and > 60 µM (not active), respectively.
In the same order, the values of `O=C(NC1CCCCCC1)c1cccnc1S` are 8.39 µM (active) and > 60 µM (inconclusive).
The corresponding values for `CCOC(=O)c1ccc(-n2ccnc2)c(NC(=O)c2cccc(Br)c2)c1` are 0.281 µM (active) and > 60 µM (not active).
In the same order, the values of `Cc1nn(C)cc1CN1CCCC(C(=O)c2ccc(-c3ccccc3)cc2)C1` (stereo not drawn) are 0.123 µM (active) and > 60 µM (not active).
For the compound `COc1ccc(Cl)cc1N=C(S)NCCC(c1ccccc1)c1ccccc1`, the EC50 in assay [1] was 1.44 µM (active); in assay [2] it was > 60 µM (not active).
The corresponding values for `Cc1ccc(CNC(=O)CCC2CCCN(Cc3ccc4cccc(F)c4n3)C2)o1` (stereo not drawn) are 0.791 µM (active) and > 60 µM (not active).
Turning to `Cc1nc(-c2ccccn2)nc(SCC(=O)c2ccccc2)c1Cl`, the EC50 was 11.4 µM (active) in assay [3] and 3.92 µM (active) in assay [4].
Turning to `COc1ccc(C)cc1NC(=O)CN1CCN(S(=O)(=O)c2ccc(C(C)C)cc2)CC1`, the EC50 in assay [1] was 1.79 µM (active); in assay [2], > 30 µM (not active).
The corresponding values for `O=[N+]([O-])c1ccc(S(=O)(=O)N2CCN(c3ccnc4cc(Cl)ccc34)CC2)cc1` are 0.581 µM (active) and > 60 µM (not active).
The corresponding values for `C=C(C)COc1ccc(-c2nc(N)nc(C(F)(F)F)c2-c2ccc(OC)cc2)c(O)c1` are 2 µM (active) and > 60 µM (not active).
For the compound `CC(C)c1ccccc1OCC(O)CN1CCN(S(=O)(=O)c2ccc([N+](=O)[O-])cc2)CC1` (stereo not drawn), the EC50 in assay [1] was 0.409 µM (active); in assay [2], > 60 µM (not active).
As for `Clc1ccccc1-c1ncc2ccccn12`, the EC50 in assay [1] was 2.45 µM (active); in assay [2] it was > 60 µM (not active).
The corresponding values for `Cc1onc(-c2ccc(Cl)cc2Cl)c1-c1csc(N/N=C/c2ccccc2Cl)n1` are 2.08 µM (active) and 13.9 µM (active).
Turning to `CC(=O)/N=c1\sc2c3ccccc3ccc2n1C`, the EC50 in assay [1] is 0.643 µM (active); in assay [2], > 30 µM (not active).
In the same order, the values of `c1ccc2sc(C3CCNCC3)nc2c1` are 2.58 µM (active) and > 60 µM (not active).
Regarding `COc1c(N2CCNC(C)C2)c(F)cc2c(=O)c(C(=O)O)cn(C3CC3)c12` (stereo not drawn) [GATIFLOXACIN], the EC50 in assay [3] was 1.09 µM (active); in assay [4] it was 0.66 µM (active).
Turning to `CC(C)=CCc1cc([C@@H]2CC(=O)c3ccc(O)c(CC=C(C)C)c3O2)ccc1O` [GLABROL], the EC50 was 5.43 µM (active) in assay [3] and 6.4 µM (active) in assay [4].

The values are drawn from ChEMBL document CHEMBL1201862, “PubChem BioAssay data set” (2004).
